What was measured:
LRRC54 gene = assay: LRRC54 (non-genomic gene) mRNA expression, qPCR; details: MCF-7 cells; 1 μM PaPE or 10 nM E2 for 4 h where stated; versus vehicle, E2 or compound 2
Description: (§1) Quantitation of signal intensities is shown in panel at the right.

PgR gene = assay: PgR (genomic gene) mRNA expression, qPCR; details: MCF-7 cells; 1 μM PaPE or 10 nM E2 for 4 h where stated; versus vehicle or E2
Description: as §1

Row | Structure (SMILES) | LRRC54 (non-genomic gene) mRNA expression, in words (LRRC54 gene) | PgR (genomic gene) mRNA expression, in words (PgR gene)
1 | Cc1cc(-c2ccc(O)c(CCO)c2)cc(C)c1O [Compound 69, 3′-(2-hydroxyethyl)-3,5-dimethyl-[1,1′-biphenyl]-4,4′-diol] | does not improve the non-genomic LRRC54 gene response | 
2 | Cc1cc(-c2ccc(CCBr)cc2)cc(C)c1O [Compound 46] | preferentially stimulate LRRC54 better than E2 | 
3 | Cc1cc(-c2ccc3c(c2)CC=C3)cc(C)c1O [Compound 14, 4-(1H-inden-6-yl)-2,6-dimethylphenol] |  | strongly stimulate the genomic gene PgR
4 | Cc1cc(-c2cc(C)c(O)c(CO)c2)cc(C)c1O [Compound 68, 3-(Hydroxymethyl)-3′,5,5′-trimethyl-[1,1′-biphenyl]-4,4′-diol] | suppresses LRRC54 gene expression compared to that of the parent compound 59 | 
5 | Cc1cc(C(=C2CCCCC2)c2ccc(Br)cc2)cc(C)c1O [Compound 67] |  | stimulate PgR gene selectively
6 | OCc1cc(-c2ccccc2)ccc1O [Compound 61, 4-Hydroxy-3-hydroxymethyl-biphenyl] | a little better than vehicle (Veh.) | not at all
7 | Cc1cc(-c2ccc3c(c2)CCC3)cc(C)c1O [Compound 13, 4-(2,3-dihydro-1H-inden-5-yl)-2 6-dimethylphenol] | some non-genomic activity | strongly stimulate the genomic gene PgR
8 | Cc1cc(-c2ccc3c(c2)CCC3=O)cc(C)c1O [Compound 6, 5-(4-hydroxy-3,5-dimethylphenyl)-2,3-dihydro-1H-inden-1-one] | non-genomic activity is lost | 
9 | COC1CCc2cc(-c3cc(C)c(O)c(C)c3)ccc21 (stereo not drawn) [Compound 22, 4-(1-methoxy-2,3-dihydro-1H-inden-5-yl)-2,6-dimethylphenol] | stimulation of both genomic and nongenomic gene expression is lost | stimulation of both genomic and nongenomic gene expression is lost
10 | Cc1cc(-c2cccc(CCCO)c2)cc(C)c1O [Compound 47, 3′-(3-hydroxypropyl)-3,5-dimethyl-[1,1′-biphenyl]-4-ol] | good stimulation of the non-genomic LRRC54 | stimulate expression of genomic PgR genes well
11 | CC(O)c1ccc(-c2ccccc2)cc1 (stereo not drawn) [Compound 31] | both activities are lost | both activities are lost
12 | Cc1cc(-c2cc(C)c(O)c(C)c2)cc(C)c1O [Compound 65, 4,4′-Dihydroxy-3,3′,5,5′-tetramethylbiphenyl] | greatly suppresses LRRC54 gene expression | equivalent to that of vehicle (Veh.)
13 | Cc1cc(-c2ccc3c(c2)CC[C@@H]3O)cc(C)c1O [Compound 3, S-5-(4-hydroxy-3,5-dimethylphenyl)-2,3-dihydro-1H-inden-1-ol] | equivalent activities | 
14 | COc1c(C)cc(-c2ccc3c(c2)CCC3O)cc1C (stereo not drawn) [Compound 5, 5-(4-methoxy-3,5-dimethylphenyl)-2,3-dihydro-1H-inden-1-ol] | marked loss of this non-genomic activity | 
15 | Cc1cc(-c2ccc3c(c2)CC(F)C3O)cc(C)c1O (stereo not drawn) [Compound 50, 2-fluoro-5-(4-hydroxy-3,5-dimethylphenyl)-2,3-dihydro-1H-inden-1-ol] | stimulate both non-genomic LRRC54 and genomic PgR gene expression close to the level that of E2 | stimulate both non-genomic LRRC54 and genomic PgR gene expression close to the level that of E2
16 | Cc1cc(C(=C2C3CC4CC(C3)CC2C4)c2ccc(Br)cc2)cc(C)c1O [Compound 66] |  | stimulate PgR gene selectively
17 | COC1CC(=O)c2ccc(-c3cc(C)c(O)c(C)c3)cc21 (stereo not drawn) [Compound 29] |  | did not activate PgR above that of vehicle (veh.)
18 | COCc1cc(-c2ccc3c(c2)CCC3O)cc(C)c1O (stereo not drawn) [Compound 54, 5-(4-hydroxy-3-methyl-5-methoxymethylphenyl)-2,3-dihydro-1H-inden-1-ol] | little expression of both genes | little expression of both genes
19 | Cc1cc(-c2ccc3c(c2)CC[C@H]3O)cc(C)c1O [Compound 4, R-5-(4-hydroxy-3,5-dimethylphenyl)-2,3-dihydro-1H-inden-1-ol] | less non-genomic gene activity | 
20 | Cc1cc(-c2cccc(CC(=O)O)c2)cc(C)c1O [Compound 49] | behaves like vehicle | behaves like vehicle
21 | Cc1cc(-c2ccc3cc(O)ccc3c2)cc(C)c1O [Compound 53] | gene expression pattern equivalent to that of estradiol (E2) | gene expression pattern equivalent to that of estradiol (E2)
22 | Cc1cc(-c2ccc3c(c2)CC(Br)(Br)C3O)cc(C)c1O (stereo not drawn) [Compound 52, 2,2-dibromo-5-(4-hydroxy-3,5-dimethylphenyl)-2,3-dihydro-1H-inden-1-ol] | little expression of both genes | little expression of both genes
23 | Cc1cc(-c2ccc(CCCO)cc2)cc(C)c1O [Compound 48, 4′-(3-hydroxypropyl)-3,5-dimethyl-[1,1′-biphenyl]-4-ol] |  | stimulate expression of genomic PgR genes well
24 | Cc1cc(-c2ccc3c(c2)C=CC3=O)cc(C)c1O [Compound 18] | increases expression of both the non-genomic and genomic genes | increases expression of both the non-genomic and genomic genes
25 | OCc1cc(-c2ccc3c(c2)CCC3O)cc(CO)c1O (stereo not drawn) [Compound 58, 5-(4-hydroxy-3,5-(dihydroxymethyl)phenyl)-2,3-dihydro-1H-inden-1-ol] | increases the expression of the non-genomic LRRC54 gene | 
26 | Cc1cc(-c2ccc3c(c2)CC(Br)C3O)cc(C)c1O (stereo not drawn) [Compound 51, 2-bromo-5-(4-hydroxy-3,5-dimethylphenyl)-2,3-dihydro-1H-inden-1-ol] | stimulate both non-genomic LRRC54 and genomic PgR gene expression close to the level that of E2 | stimulate both non-genomic LRRC54 and genomic PgR gene expression close to the level that of E2

Source: patent US10703698B2, “Compounds which activate estrogen receptors and compositions and methods of using the same” (The Board of Trustees of the University of Illinois, priority 2016, dated 2020)
